# In patent US6340696B1, “Viral treatment” (The Procter & Gamble Company, priority 1999, dated 2002):
# Read-outs that look alike come from different tables or passages of the source. Marks after values point to notes of the source that are not given here.
# B1: INF-α H2: human IFN-α species H2 (protein, UniProt P01570 24-189, looked up)
# Interferon alpha-14: CNLSQTHSLNNRRTLMLMAQMRRISPFSCLKDRHDFEFPQEEFDGNQFQKAQAISVLHEMMQQTFNLFSTKNSSAAWDETLLEKFYIELFQQMNDLEACVIQEVGVEETPLMNEDSILAVKKYFQRITLYLMEKKYSPCAWEVVRAEIMRSLSFSTNLQKRLRRKD
# B2: INF-α D: human IFN-α species D (protein, UniProt P01562 24-189, looked up)
# Interferon alpha-1/13: CDLPETHSLDNRRTLMLLAQMSRISPSSCLMDRHDFGFPQEEFDGNQFQKAPAISVLHELIQQIFNLFTTKDSSAAWDEDLLDKFCTELYQQLNDLEACVMQEERVGETPLMNADSILAVKKYFRRITLYLTEKKYSPCAWEVVRAEIMRSLSLSTNLQERLRRKE
# B3: INF-α K: human IFN-α species K (protein, UniProt P05013 21-189, looked up)
# Interferon alpha-6: SLDCDLPQTHSLGHRRTMMLLAQMRRISLFSCLKDRHDFRFPQEEFDGNQFQKAEAISVLHEVIQQTFNLFSTKDSSVAWDERLLDKLYTELYQQLNDLEACVMQEVWVGGTPLMNEDSILAVRKYFQRITLYLTEKKYSPCAWEVVRAEIMRSFSSSRNLQERLRRKE
# B4: INF-α F: human IFN-α species F (protein, UniProt P01568 24-189, looked up)
# Interferon alpha-21: CDLPQTHSLGNRRALILLAQMGRISPFSCLKDRHDFGFPQEEFDGNQFQKAQAISVLHEMIQQTFNLFSTKDSSATWEQSLLEKFSTELNQQLNDLEACVIQEVGVEETPLMNVDSILAVKKYFQRITLYLTEKKYSPCAWEVVRAEIMRSFSLSKIFQERLRRKE
# B5: INF-α WA: human IFN-α species WA (protein, UniProt P05015 24-189, looked up)
# Interferon alpha-16: CDLPQTHSLGNRRALILLAQMGRISHFSCLKDRYDFGFPQEVFDGNQFQKAQAISAFHEMIQQTFNLFSTKDSSAAWDETLLDKFYIELFQQLNDLEACVTQEVGVEEIALMNEDSILAVRKYFQRITLYLMGKKYSPCAWEVVRAEIMRSFSFSTNLQKGLRRKD
# B6: INF-α G: human IFN-α species G (protein, UniProt P01569 22-189, looked up)
# Interferon alpha-5: LGCDLPQTHSLSNRRTLMIMAQMGRISPFSCLKDRHDFGFPQEEFDGNQFQKAQAISVLHEMIQQTFNLFSTKDSSATWDETLLDKFYTELYQQLNDLEACMMQEVGVEDTPLMNVDSILTVRKYFQRITLYLTEKKYSPCAWEVVRAEIMRSFSLSANLQERLRRKE
# B7: INF-α C: human IFN-α species C (protein, UniProt P01566 24-189, looked up)
# Interferon alpha-10: CDLPQTHSLGNRRALILLGQMGRISPFSCLKDRHDFRIPQEEFDGNQFQKAQAISVLHEMIQQTFNLFSTEDSSAAWEQSLLEKFSTELYQQLNDLEACVIQEVGVEETPLMNEDSILAVRKYFQRITLYLIERKYSPCAWEVVRAEIMRSLSFSTNLQKRLRRKD
# B8: INF-α J1: human IFN-α species J1 (protein, UniProt P01567 24-189, looked up)
# Interferon alpha-7: CDLPQTHSLRNRRALILLAQMGRISPFSCLKDRHEFRFPEEEFDGHQFQKTQAISVLHEMIQQTFNLFSTEDSSAAWEQSLLEKFSTELYQQLNDLEACVIQEVGVEETPLMNEDFILAVRKYFQRITLYLMEKKYSPCAWEVVRAEIMRSFSFSTNLKKGLRRKD
# Columns and labels:
# [1] = tested on: Madin-Darby bovine kidney (MDBK) cells; assay: Cytotoxicity in MDBK cells (drug toxicity control wells, XTT)
# Description: (§1) Madin-Darby bovine kidney (MDBK) cells were passaged in T-75 flasks for use in the assay. On the day preceding the assay, the cells were trypsinized, pelleted, counted and resuspended at 6×10^4/well in tissue culture medium. Cells were added to 96 well flat bottom plates in a volume of 100 μl per well.
# (§2) Interferon was purchased from PBL Biomedical Laboratories (New Brunswick, N.J.) and was in PBS solutions. On the day of testing, the drug stock is diluted in the medium to the desired high concentration and then further diluted in the medium in half log series.
# (§3) The day following plating of cells, plates are removed from the incubator, and medium is removed and discarded. Drug dilutions are added to appropriate wells of the microtiter plate in a volume of 100 μl per well. Each dilution is set up in triplicate. Complete medium or complete medium containing appropriately diluted virus is added to appropriate wells in a volume of 100 μl per well.
# (§4) The format of the test plate has been standardized. Each plate contains cell control wells (cell only), virus control wells (cells plus virus), drug toxicity control wells (cells plus drug only), drug colorimetric control wells (drug only) as well as experimental wells (drugs plus cells plus virus).
# (§5) The cell viability was evaluated by a dye (XTT) uptake procedure. XTT-tetraolium is metabolized by the mitochontrial enzymes of metabolically active cells to a soluble formazan product, allowing the rapid quantitative analysis of the inhibition of virus-induced cell killing by antiviral test substances.
# (§6) XTT solution was prepared daily as a stock of 1 mg/ml in PBS. Phenazine methosulfate (PMS) solution was prepared at 15 mg/ml in PVBS and stored in the dark at −20° C. STT/PMS stock was prepared immediately before use by diluting PMS 1:100 into PBS and adding 40 μl per ml of XTT solution. Fifty microliters of XTT/PMS was added to each well of the plate (each well had been loaded with 100 μl fresh medium) and the plate was reincubated for 4 hours at 37° C.
# (§7) Adhesive plate sealers were used in place of the lids, the sealed plate was inverted several times to mix the soluble formazan product and the plate was read spectrophotometrically at 450 nm (XTT) with a Molecular Devices Vmax plate reader.
# (§8) The efficacy and toxicity of inteferons are analyzed using a computer program (developed by Southern Research Institute) which calculates % CPE reduction, % cell viability, IC25,50 & 95, TC5,50 & 95 and other indices.
# (§9) Combination effects are analyzed statistically by Prichard and Shipman method. Effects of the drug combination on efficacy and toxicity are calculated based on the activity or toxicity of the two compounds when tested alone. The expected additive inhibition rate of virus production or the expected additive cell viability rate subtracted from the experimentally determined inhibition rate or viability rate at each combination concentration results in a positive value (synergy), a negative value (antagonism), or zero (addivity).
# BVDV = BVDV antiviral assay in MDBK cells, XTT readout of inhibition of virus-induced cell killing; assay type: cell-based; conditions: for Comments: activity against BVDV / toxicity; for TI: TC50/IC50
# Description: as §1
# A pretitered aliquot of virus is removed from the freezer (−80° C.) and allowed to thaw slowly to room temperature in a biological safety cabinet. The virus is diluted into tissue culture medium such that the amount of virus added to each well in a volume of 100 μl will be the amount determined to give complete cell killing at 6 days post-infection.
# as §2, §3, §4, §5, §6, §7, §8, §9
# [2] = Compound conc 0.020, INF-αA conc 0
# [3] = Compound conc 0.020, Ribavirin conc 0
# [4] = Compound conc 0.063, INF-αA conc 0
# [5] = Compound conc 0.063, Ribavirin conc 0
# [6] = Compound conc 0.200, INF-αA conc 0
# [7] = Compound conc 0.200, Ribavirin conc 0
# [8] = Compound conc 0.633, INF-αA conc 0
# [9] = Compound conc 0.633, Ribavirin conc 0
# [10] = Compound conc 2.00, INF-αA conc 0
# [11] = Compound conc 2.00, Ribavirin conc 0
molecule,measurement,setting,value
"NC(=O)c1ncn([C@@H]2O[C@H](CO)[C@@H](O)[C@H]2O)n1 [Ribavirin, 1-β-D-ribofuranosyl-1H-1,2,4-triazole-3carboxamide, reference compound]",TC50,"[1]; MDBK cells, unit per footnote",7.19* μg/ml
same,IC50,"BVDV; Bovine viral diarrhea virus isolates and strains, MDBK",0.66 µg/mL
same,Antiviral Percentage Inhibition,"BVDV; Compound conc 0, Ribavirin conc 0.075",0%
same,Antiviral Percentage Inhibition,"BVDV; Compound conc 0, Ribavirin conc 0.238",5.2%
same,Antiviral Percentage Inhibition,"BVDV; Compound conc 0, Ribavirin conc 0.751",5%
same,Antiviral Percentage Inhibition,"BVDV; Compound conc 0, Ribavirin conc 2.373",7.9%
same,Antiviral Percentage Inhibition,"BVDV; Compound conc 0, Ribavirin conc 7.5",43.7%
same,Antiviral Percentage Inhibition,"BVDV; Ribavirin conc 0.075, INF-αA conc 0",0%
same,Antiviral Percentage Inhibition,"BVDV; Ribavirin conc 0.238, INF-αA conc 0",5%
same,Antiviral Percentage Inhibition,"BVDV; Ribavirin conc 0.751, INF-αA conc 0",3%
same,Antiviral Percentage Inhibition,"BVDV; Ribavirin conc 2.373, INF-αA conc 0",31.5%
same,Antiviral Percentage Inhibition,"BVDV; Ribavirin conc 7.500, INF-αA conc 0",41.6%
same,Comments,BVDV,Active/Toxic
INF-α I: human IFN-α species I,TC50,[1],>316.00 U/ml
same,IC50,BVDV; BVDV in MDBK cells,26.80 U/ml
same,TI,BVDV,>11.81
same,Comments,BVDV,Active/Nontoxic
"(5-Phenyl-1,2,4-thiadiazol)-3-yl thiourea [Compound]",Cytotoxicity Percentage,[1]; [2],0%
same,Cytotoxicity Percentage,[1]; [3],16.3%
same,Cytotoxicity Percentage,[1]; [4],5.8%
same,Cytotoxicity Percentage,[1]; [5],6.7%
same,Cytotoxicity Percentage,[1]; [6],8.3%
same,Cytotoxicity Percentage,[1]; [7],6.2%
same,Cytotoxicity Percentage,[1]; [8],13.5%
same,Cytotoxicity Percentage,[1]; [9],16.9%
same,Cytotoxicity Percentage,[1]; [10],10.3%
same,Cytotoxicity Percentage,[1]; [11],18.8%
same,combination effect on toxicity of ribavirin towards the cells,[1]; in vitro,imposes antagonistic effect on toxicity of ribavirin
same,Antiviral Percentage Inhibition,BVDV; [2],5.8%
same,Antiviral Percentage Inhibition,BVDV; [3],7.3%
same,Antiviral Percentage Inhibition,BVDV; [4],7%
same,Antiviral Percentage Inhibition,BVDV; [5],5%
same,Antiviral Percentage Inhibition,BVDV; [6],4%
same,Antiviral Percentage Inhibition,BVDV; [7],3.6%
same,Antiviral Percentage Inhibition,BVDV; [8],11.7%
same,Antiviral Percentage Inhibition,BVDV; [9],7.6%
same,Antiviral Percentage Inhibition,BVDV; [10],25.9%
same,Antiviral Percentage Inhibition,BVDV; [11],29.5%
same,combination effect on activity against BVDV in vitro (words),"BVDV; listed as (5-Phenyl -1,2,4-thiadiazol)-3-yl thiourea",acts synergistically with INF-αA
same,combination effect on activity against BVDV in vitro (words),"BVDV; listed as (5-Phenyl-1,2,4-thiadiazol)-3-yl thiourea",does not have antagonistic effect on activity of ribavirin
B1,TC50,[1],>316.00 U/ml
same,IC50,BVDV; BVDV in MDBK cells,7.00 U/ml
same,TI,BVDV,>45.12
same,Comments,BVDV,Active/Nontoxic
B2,TC50,[1],>316.00 U/ml
same,IC50,BVDV; BVDV in MDBK cells,11.60 U/ml
same,TI,BVDV,>27.31
same,Comments,BVDV,Active/Nontoxic
B3,TC50,[1],>316.00 U/ml
same,IC50,BVDV; BVDV in MDBK cells,24.80 U/ml
same,TI,BVDV,>12.72
same,Comments,BVDV,Active/Nontoxic
B4,TC50,[1],>316.00 U/ml
same,IC50,BVDV; BVDV in MDBK cells,33.00 U/ml
same,TI,BVDV,>9.57
same,Comments,BVDV,Active/Nontoxic
B5,TC50,[1],>316.00 U/ml
same,IC50,BVDV; BVDV in MDBK cells,6.75 U/ml
same,TI,BVDV,>46.78
same,Comments,BVDV,Active/Nontoxic
B6,TC50,[1],>316.00 U/ml
same,IC50,BVDV; BVDV in MDBK cells,23.60 U/ml
same,TI,BVDV,>13.40
same,Comments,BVDV,Active/Nontoxic
B7,TC50,[1],>316.00 U/ml
same,IC50,BVDV; BVDV in MDBK cells,9.12 U/ml
same,TI,BVDV,>34.66
same,Comments,BVDV,Active/Nontoxic
B8,TC50,[1],>316.00 U/ml
same,IC50,BVDV; BVDV in MDBK cells,10.60 U/ml
same,TI,BVDV,>29.90
same,Comments,BVDV,Active/Nontoxic
